Experimental data from patent US8562949B2, “Radiolabeled dihydrotetrabenazine derivatives and their use as imaging agents” (The Trustees of the University of Pennsylvania, priority 2006, dated 2013).
“And” between values parts separate entries of the source, which are not always exact repeats. Identical values can stand only once.

Legend:
[1] = Partition coefficient 1-octanol/phosphate buffer; type: physicochemical; settings: pH 7.4, 1-octanol and phosphate buffer
Protocol: Partition coefficients were measured by mixing the [^18F]tracer with 3 g each of 1-octanol and buffer (0.1 M phosphate, pH 7.4) in a test tube. The test tube was vortexed for 3 min at room temperature, followed by centrifugation for 5 min. Two weighed samples (0.5 g each) from the 1-octanol and buffer layers were counted in a well counter. The partition coefficient was determined by calculating the ratio of cpm/g of 1-octanol to that of buffer. Samples from the 1-octanol layer were re-partitioned until consistent partitions of coefficient values were obtained. Values are the mean±SEM of three independent experiments, each in duplicates.

[2] = Biodistribution of [18F]6a and [18F]6b in normal mice (iv injection); type: in vivo, ICR mice
Protocol: While under isoflurane anesthesia, 0.15 mL of a 0.1% bovine serum albumin solution containing [^18F]tracers (10-20 μCi) were injected directly into the tail vein of ICR mice (22-25 g, male) The mice (n=3 for each time point) were sacrificed by cervical dislocation at indicated time points post injection. The organs of interest were removed and weighed, and the radioactivity was counted with an automatic gamma counter. The percentage dose per organ was calculated by a comparison of the tissue counts to suitably diluted aliquots of the injected material. Total activities of blood were calculated under the assumption that they were 7% of the total body weight. The % dose/g of samples was calculated by comparing the sample counts with the count of the diluted initial dose.

[3] = target: VMAT2 (Mus musculus, UniProt Q8BRU6); test: Saturation binding of 18F ligands in mouse striatal homogenates; parameters: The basal forebrain regions of rat and mouse brains were then dissected; from tissue; host or cells: mouse striatal homogenate; mouse brain coronal sections; settings: estimated based on S.A.=2000 Ci/mmole
Protocol: The basal forebrain regions of rat and mouse brains were then dissected. The tissue homogenates were prepared in 50 mM Hepes, pH 7.5 and 0.3 M sucrose. The specific binding of ^3H or ^18F ligands were determined following the procedures described (Scherman D, Raisman R, Ploska A, Agid Y., [^3H]Dihydrotetrabenazine, a new in vitro monoaminergic probe for human brain, J. Neurochem., 1988:50:1131-36). Total volume of reaction for the assay was 0.2 ml. […] In saturation experiments, increasing concentrations of labeled ligand […] in 50 μl buffer were incubated with 100 μl of homogenates (100-250 μg). Incubation was carried out routinely at room temperature for 90 min. The samples were then filtered through glass fiber filters No. 25 (Schleicher and Schuell, Keene, N.H.) and the bound radioactivity was determined for ^18F in a gamma counter (Packard 5000) with 70% efficiency. Filters containing bound ^3H ligand were dissolved in 7 ml Ecolite(+) overnight and the radioactivity was counted next day in the scintillation counter (Beckman) with 65% counting efficiency. […] Nonspecific binding was determined in the presence of 10 μM tetrabenazine. Both saturation and competition experiments were analyzed using the nonlinear least-square curve fitting program LIGAND. […]

VMAT2, sequence (Q8BRU6 whole entry): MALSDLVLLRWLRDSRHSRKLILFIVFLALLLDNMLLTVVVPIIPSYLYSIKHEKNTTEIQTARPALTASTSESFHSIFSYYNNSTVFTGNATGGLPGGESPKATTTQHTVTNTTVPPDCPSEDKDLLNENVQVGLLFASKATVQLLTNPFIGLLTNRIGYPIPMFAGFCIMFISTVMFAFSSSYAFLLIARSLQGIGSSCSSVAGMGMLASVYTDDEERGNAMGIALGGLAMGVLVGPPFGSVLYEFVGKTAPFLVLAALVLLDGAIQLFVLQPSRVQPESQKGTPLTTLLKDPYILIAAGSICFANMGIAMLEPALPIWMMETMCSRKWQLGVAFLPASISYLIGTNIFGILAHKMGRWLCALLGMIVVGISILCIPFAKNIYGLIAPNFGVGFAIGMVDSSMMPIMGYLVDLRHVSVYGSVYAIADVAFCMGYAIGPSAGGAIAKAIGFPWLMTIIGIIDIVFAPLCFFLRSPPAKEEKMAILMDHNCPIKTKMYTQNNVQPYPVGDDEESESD

## COc1cc2c(cc1OCC[18F])CCN1CC(CC(C)C)C(O)CC21 (racemic) [[^18F]6a]
[1]
  logD at 3 min: 2.12
[2]; 30 min p.i., normal mice
  remaining in brain (brain washout): > 50%
[2]; mice, iv, 2 min
  brain uptake: 4.66 % ID/g
[2]; mice, iv, time not stated
  ST/CB ratio: 1.9
[2]; normal mice, iv, 2 min
  Organ distribution Blood: 2.68 ± 0.37 % dose/g
  Organ distribution Bone: 2.07 ± 0.05 % dose/g
  Organ distribution Brain: 4.66 % dose/g and 4.66 ± 0.78 % dose/g
  Organ distribution Heart: 4.49 ± 0.85 % dose/g
  Organ distribution Kidney: 10.7 ± 3.06 % dose/g
  Organ distribution Liver: 18.2 ± 4.14 % dose/g
  Organ distribution Lung: 5.83 ± 1.25 % dose/g
  Organ distribution Muscle: 0.66 ± 0.10 % dose/g
  Organ distribution Skin: 0.91 ± 0.10 % dose/g
  Organ distribution Spleen: 8.11 ± 0.90 % dose/g
  Ratio (vs CB) Cortex: 1.06
  Ratio (vs CB) Hippocampus: 1.09
  Ratio (vs CB) Striatum: 1.23
  Regional brain distribution Cerebellum (CB): 4.42 ± 0.74 % dose/g
  Regional brain distribution Cortex: 4.70 ± 0.66 % dose/g
  Regional brain distribution Hippocampus: 4.84 ± 0.72 % dose/g
  Regional brain distribution Striatum: 5.46 ± 0.80 % dose/g
[2]; normal mice, iv, 15 min
  Organ distribution Blood: 2.05 ± 0.17 % dose/g
  Organ distribution Bone: 2.40 ± 0.23 % dose/g
  Organ distribution Brain: 2.10 ± 0.25 % dose/g
  Organ distribution Heart: 1.99 ± 0.19 % dose/g
  Organ distribution Kidney: 5.51 ± 1.55 % dose/g
  Organ distribution Liver: 10.5 ± 1.48 % dose/g
  Organ distribution Lung: 2.96 ± 0.30 % dose/g
  Organ distribution Muscle: 1.01 ± 0.02 % dose/g
  Organ distribution Skin: 1.19 ± 0.03 % dose/g
  Organ distribution Spleen: 2.77 ± 0.33 % dose/g
  Ratio (vs CB) Cortex: 0.92
  Ratio (vs CB) Hippocampus: 1.18
  Ratio (vs CB) Striatum: 1.91
  Regional brain distribution Cerebellum (CB): 1.97 ± 0.22 % dose/g
  Regional brain distribution Cortex: 1.82 ± 0.19 % dose/g
  Regional brain distribution Hippocampus: 2.33 ± 0.30 % dose/g
  Regional brain distribution Striatum: 3.76 ± 0.51 % dose/g
[2]; normal mice, iv, 30 min
  Organ distribution Blood: 2.27 ± 0.11 % dose/g
  Organ distribution Bone: 3.88 % dose/g and 3.88 ± 0.47 % dose/g
  Organ distribution Brain: 2.09 ± 0.09 % dose/g
  Organ distribution Heart: 2.14 ± 0.11 % dose/g
  Organ distribution Kidney: 4.18 ± 0.33 % dose/g
  Organ distribution Liver: 8.85 ± 1.34 % dose/g
  Organ distribution Lung: 2.83 ± 0.25 % dose/g
  Organ distribution Muscle: 1.52 ± 0.07 % dose/g
  Organ distribution Skin: 1.72 ± 0.11 % dose/g
  Organ distribution Spleen: 2.62 ± 0.20 % dose/g
  Ratio (vs CB) Cortex: 1.00
  Ratio (vs CB) Hippocampus: 1.03
  Ratio (vs CB) Striatum: 1.71
  Regional brain distribution Cerebellum (CB): 1.97 ± 0.14 % dose/g
  Regional brain distribution Cortex: 1.96 ± 0.14 % dose/g
  Regional brain distribution Hippocampus: 2.02 ± 0.10 % dose/g
  Regional brain distribution Striatum: 3.37 ± 0.06 % dose/g
[2]; normal mice, iv, 1 hr
  Organ distribution Blood: 1.75 ± 0.16 % dose/g
  Organ distribution Bone: 5.84 ± 1.42 % dose/g
  Organ distribution Brain: 1.51 ± 0.20 % dose/g
  Organ distribution Heart: 1.53 ± 0.15 % dose/g
  Organ distribution Kidney: 2.27 ± 0.39 % dose/g
  Organ distribution Liver: 3.88 ± 0.40 % dose/g
  Organ distribution Lung: 1.74 ± 0.04 % dose/g
  Organ distribution Muscle: 1.05 ± 0.03 % dose/g
  Organ distribution Skin: 1.23 ± 0.06 % dose/g
  Organ distribution Spleen: 1.56 ± 0.07 % dose/g
  Ratio (vs CB) Cortex: 1.12
  Ratio (vs CB) Hippocampus: 1.05
  Ratio (vs CB) Striatum: 1.71
  Regional brain distribution Cerebellum (CB): 1.85 ± 0.20 % dose/g
  Regional brain distribution Cortex: 2.07 ± 0.42 % dose/g
  Regional brain distribution Hippocampus: 1.95 ± 0.49 % dose/g
  Regional brain distribution Striatum: 3.17 ± 0.79 % dose/g
[2]; normal mice, iv, 2 hr
  Organ distribution Blood: 1.38 ± 0.20 % dose/g
  Organ distribution Bone: 8.89 ± 0.75 % dose/g
  Organ distribution Brain: 1.13 ± 0.10 % dose/g
  Organ distribution Heart: 1.22 ± 0.13 % dose/g
  Organ distribution Kidney: 1.40 ± 0.30 % dose/g
  Organ distribution Liver: 3.36 ± 0.32 % dose/g
  Organ distribution Lung: 1.29 ± 0.19 % dose/g
  Organ distribution Muscle: 0.73 ± 0.13 % dose/g
  Organ distribution Skin: 0.85 ± 0.10 % dose/g
  Organ distribution Spleen: 1.06 ± 0.10 % dose/g
  Ratio (vs CB) Cortex: 0.81
  Ratio (vs CB) Hippocampus: 1.12
  Ratio (vs CB) Striatum: 1.28
  Regional brain distribution Cerebellum (CB): 1.09 ± 0.03 % dose/g
  Regional brain distribution Cortex: 0.88 ± 0.21 % dose/g
  Regional brain distribution Hippocampus: 1.22 ± 0.18 % dose/g
  Regional brain distribution Striatum: 1.39 ± 0.03 % dose/g
[3]
  Kd: 0.52 nM
